Laboratory results: ChEMBL document CHEMBL3885881, “DrugMatrix”

Organism: Rattus norvegicus
Experiment: DrugMatrix - Regimen: Daily Repeat
Format: toxicity, organism-based, Sprague-Dawley
Set-up: regimen Daily Repeat, gender Male, age 6-8 weeks
Conditions: in vivo, po, route oral GAVAGE, vehicle .5 % CMC; for ABSOLUTE BASOPHIL / ABSOLUTE EOSINOPHIL / ABSOLUTE LYMPHOCYTE / ABSOLUTE MONOCYTE / ABSOLUTE SEGMENTED NEUTROPHIL / BASOPHIL / EOSINOPHIL / ERYTHROCYTE COUNT / HEMATOCRIT / HEMOGLOBIN / LEUKOCYTE COUNT / LYMPHOCYTE / MEAN CORPUSCULAR HEMOGLOBIN / MEAN CORPUSCULAR HEMOGLOBIN CONCENTRATION / MEAN CORPUSCULAR VOLUME / MONOCYTE / NEUTROPHIL / NUCLEATED RED BLOOD CELLS / PLATELET COUNT: tissue Blood; for ALANINE AMINOTRANSFERASE / ALBUMIN / ALKALINE PHOSPHATASE / ASPARTATE AMINOTRANSFERASE / BLOOD UREA NITROGEN / CARBON DIOXIDE / CHLORIDE / CHOLESTEROL / CREATINE PHOSPHOKINASE / CREATININE / GLUCOSE / LACTATE DEHYDROGENASE / LIPASE / PHOSPHORUS / POTASSIUM / SODIUM / TOTAL BILIRUBIN / TOTAL PROTEIN / URIC ACID: tissue Plasma
[1] = 0 mg/kg, 72 h, dose level Control, time 3 day
[2] = 0 mg/kg, 120 h, dose level Control, time 5 day
[3] = 50 mg/kg, 72 h, dose level Low, time 3 day

## CNC(=C[N+](=O)[O-])NCCSCc1ccc(CN(C)C)o1 [RANITIDINE]
[1]
  ABSOLUTE BASOPHIL: 0 CELLS/uL
  ABSOLUTE EOSINOPHIL: 0 CELLS/uL
  ABSOLUTE LYMPHOCYTE: 12269.67 CELLS/uL
  ABSOLUTE MONOCYTE: 160.33 CELLS/uL
  ABSOLUTE SEGMENTED NEUTROPHIL: 970 CELLS/uL
  BASOPHIL: 0%
  EOSINOPHIL: 0%
  ERYTHROCYTE COUNT: 5.76 x10E6/uL
  HEMATOCRIT: 36.57%
  HEMOGLOBIN: 14.22 G/DL
  LEUKOCYTE COUNT: 13.4 x10E3/uL
  LYMPHOCYTE: 91.67%
  MEAN CORPUSCULAR HEMOGLOBIN: 24.67 pg
  MEAN CORPUSCULAR HEMOGLOBIN CONCENTRATION: 38.85 G/DL
  MEAN CORPUSCULAR VOLUME: 63.52 fL
  MONOCYTE: 1.17%
  NEUTROPHIL: 7.17%
  NUCLEATED RED BLOOD CELLS: 0.33 /100WBC
  PLATELET COUNT: 1250.83 x10E3/uL
  ALANINE AMINOTRANSFERASE: 49.17 u/L
  ALBUMIN: 4.33 G/DL
  ALKALINE PHOSPHATASE: 378.5 u/L
  ASPARTATE AMINOTRANSFERASE: 82.17 u/L
  BLOOD UREA NITROGEN: 15 mg/dL
  CARBON DIOXIDE: 34.33 mmol/L
  CHLORIDE: 99.17 MEQ/L
  CHOLESTEROL: 71.17 mg/dL
  CREATINE PHOSPHOKINASE: 258.67 u/L
  CREATININE: 0.18 mg/dL
  GLUCOSE: 142.67 mg/dL
  LACTATE DEHYDROGENASE: 154.33 u/L
  LIPASE: 9 u/L
  PHOSPHORUS: 11.67 mg/dL
  POTASSIUM: 7.13 MEQ/L
  SODIUM: 142.22 MEQ/L
  TOTAL BILIRUBIN: 0.18 mg/dL
  TOTAL PROTEIN: 5.77 G/DL
  URIC ACID: 1.55 mg/dL
[2]
  ABSOLUTE BASOPHIL: 0 CELLS/uL
  ABSOLUTE EOSINOPHIL: 23.33 CELLS/uL
  ABSOLUTE LYMPHOCYTE: 14943.67 CELLS/uL
  ABSOLUTE MONOCYTE: 32 CELLS/uL
  ABSOLUTE SEGMENTED NEUTROPHIL: 1084.33 CELLS/uL
  BASOPHIL: 0%
  EOSINOPHIL: 0.17%
  ERYTHROCYTE COUNT: 5.71 x10E6/uL
  HEMATOCRIT: 35.28%
  HEMOGLOBIN: 14.27 G/DL
  LEUKOCYTE COUNT: 16.08 x10E3/uL
  LYMPHOCYTE: 93%
  MEAN CORPUSCULAR HEMOGLOBIN: 25.02 pg
  MEAN CORPUSCULAR HEMOGLOBIN CONCENTRATION: 40.43 G/DL
  MEAN CORPUSCULAR VOLUME: 61.82 fL
  MONOCYTE: 0.17%
  NEUTROPHIL: 6.67%
  NUCLEATED RED BLOOD CELLS: 0.33 /100WBC
  PLATELET COUNT: 1274 x10E3/uL
  ALANINE AMINOTRANSFERASE: 54.17 u/L
  ALBUMIN: 4.22 G/DL
  ALKALINE PHOSPHATASE: 373.17 u/L
  ASPARTATE AMINOTRANSFERASE: 81.83 u/L
  BLOOD UREA NITROGEN: 16.67 mg/dL
  CARBON DIOXIDE: 30.33 mmol/L
  CHLORIDE: 99 MEQ/L
  CHOLESTEROL: 71 mg/dL
  CREATINE PHOSPHOKINASE: 273.5 u/L
  CREATININE: 0.22 mg/dL
  GLUCOSE: 141.83 mg/dL
  LACTATE DEHYDROGENASE: 153.67 u/L
  LIPASE: 10.33 u/L
  PHOSPHORUS: 11.38 mg/dL
  POTASSIUM: 7.08 MEQ/L
  SODIUM: 142.75 MEQ/L
  TOTAL BILIRUBIN: 0.18 mg/dL
  TOTAL PROTEIN: 6.1 G/DL
  URIC ACID: 1.67 mg/dL
[3]
  ABSOLUTE BASOPHIL: 0 CELLS/uL
  ABSOLUTE EOSINOPHIL: 82.33 CELLS/uL
  ABSOLUTE LYMPHOCYTE: 12453.33 CELLS/uL
  ABSOLUTE MONOCYTE: 303 CELLS/uL
  ABSOLUTE SEGMENTED NEUTROPHIL: 1061.33 CELLS/uL
  BASOPHIL: 0%
  EOSINOPHIL: 0.67%
  ERYTHROCYTE COUNT: 5.58 x10E6/uL
  HEMATOCRIT: 36.1%
  HEMOGLOBIN: 14.47 G/DL
  LEUKOCYTE COUNT: 13.9 x10E3/uL
  LYMPHOCYTE: 89.67%
  MEAN CORPUSCULAR HEMOGLOBIN: 25.9 pg
  MEAN CORPUSCULAR HEMOGLOBIN CONCENTRATION: 40.1 G/DL
  MEAN CORPUSCULAR VOLUME: 64.73 fL
  MONOCYTE: 2%
  NEUTROPHIL: 7.67%
  NUCLEATED RED BLOOD CELLS: 0.33 /100WBC
  PLATELET COUNT: 1180.67 x10E3/uL
  ALANINE AMINOTRANSFERASE: 50.67 u/L
  ALBUMIN: 4.17 G/DL
  ALKALINE PHOSPHATASE: 358 u/L
  ASPARTATE AMINOTRANSFERASE: 90.67 u/L
  BLOOD UREA NITROGEN: 16.33 mg/dL
  CARBON DIOXIDE: 27.33 mmol/L
  CHLORIDE: 101.33 MEQ/L
  CHOLESTEROL: 81.67 mg/dL
  CREATINE PHOSPHOKINASE: 304 u/L
  CREATININE: 0.2 mg/dL
  GLUCOSE: 157.33 mg/dL
  LACTATE DEHYDROGENASE: 312 u/L
  LIPASE: 10 u/L
  PHOSPHORUS: 15.03 mg/dL
  POTASSIUM: 7.11 MEQ/L
  SODIUM: 147.4 MEQ/L
  TOTAL BILIRUBIN: 0.2 mg/dL
  TOTAL PROTEIN: 5.83 G/DL
  URIC ACID: 2.3 mg/dL
